The source of these data is ChEMBL document CHEMBL1140287, “Reversion of human Pgp-dependent multidrug resistance by new sesquiterpenes from Zinowiewia costaricensis” (J Med Chem, 2005).

The test system of assay [1] is NIH3T3. As to the kind of experiment: Concentration of compound inhibiting Pgp-mediated DNM transport in NIH3T3 cells transfected with human MDR1 protein. Format: functional, cell-based.
Assay [2] concerns NIH3T3.
Assay [3] relates to NIH3T3. The source holds these as a separate data set.
Assay [4] concerns NIH3T3. The source holds these as a separate data set.
The subject of assay [5] is NIH3T3. This is another data set of the same source.
The test system of assay [6] is NIH3T3. This is another data set of the same source.
Assay [7] deals with NIH3T3. This is another data set of the same source.

Take `CC(=O)OC[C@]12[C@H](OC(=O)c3ccccc3)C(=O)[C@@H]3[C@@H](OC(C)=O)[C@]1(OC3(C)C)[C@@](C)(O)C[C@H](OC(C)=O)[C@@H]2OC(=O)c1ccccc1`: the Ki with NIH3T3 [1] was determined as 3010 nM. This counts as single-digit micromolar.

`CC(=O)O[C@H]1C[C@](C)(O)[C@]23OC(C)(C)[C@H]([C@H](OC(=O)c4ccccc4)[C@H](OC(=O)c4ccccc4)[C@]2(C)[C@H]1OC(=O)c1ccccc1)[C@H]3OC(C)=O` yielded an inhibition constant Ki in the assay on NIH3T3 [1] of 913 nM. Further, the Reversal ability was determined as 8.26 in the assay with NIH3T3 [2]; 16.55 in the assay on NIH3T3 [3]; 9.55 with NIH3T3 [4]; 87.04 with NIH3T3 [5]; 12.72 in the assay on NIH3T3 [6]; 90.39 in the assay with NIH3T3 [7].

The molecule `CC(=O)OC[C@]12[C@H](OC(C)=O)C(=O)[C@@H]3[C@@H](OC(C)=O)[C@]1(OC3(C)C)[C@@](C)(O)[C@@H](OC(C)=O)[C@H](OC(C)=O)[C@@H]2OC(=O)c1ccccc1` displayed a Ki with NIH3T3 [1] of 6520 nM.

The molecule `CC(=O)OC[C@]12[C@@H](OC(=O)c3ccccc3)C[C@@H]3[C@@H](OC(C)=O)[C@]1(OC3(C)C)[C@@](C)(O)C[C@H](OC(C)=O)[C@@H]2OC(C)=O` showed a Ki in the assay with NIH3T3 [1] of 4390 nM.

The molecule `CC(=O)OC[C@]12[C@H](OC(=O)c3ccccc3)C(=O)[C@@H]3[C@@H](OC(C)=O)[C@]1(OC3(C)C)[C@H](C)C[C@H](OC(C)=O)[C@@H]2OC(C)=O` gave a Ki in the assay with NIH3T3 [1] of 2540 nM.

On to `CC(=O)O[C@@H]1[C@H]2[C@H](O)[C@H](OC(=O)c3ccccc3)[C@]3(C)[C@@H](OC(=O)c4ccccc4)[C@@H](OC(=O)c4ccccc4)C[C@](C)(O)[C@@]13OC2(C)C`, for which the Ki with NIH3T3 [1] turned out to be 1210 nM. Besides, the Reversal ability in the assay on NIH3T3 [2] was 6.32; in the assay with NIH3T3 [3], 5.38; with NIH3T3 [4], 11.13; in the assay with NIH3T3 [5] it was 41.23; with NIH3T3 [6] it was 15.86; in the assay on NIH3T3 [7] it was 57.32.

Consider `CC(=O)OC[C@]12[C@H](OC(=O)c3ccccc3)C(=O)[C@@H]3[C@@H](OC(C)=O)[C@]1(OC3(C)C)[C@@](C)(O)C[C@H](OC(=O)c1ccccc1)[C@@H]2OC(=O)c1ccccc1`, for which, in the assay on NIH3T3 [1], the inhibition constant Ki was 1030 nM. In addition, the Reversal ability is listed as 9.93 with NIH3T3 [2]; 7.31 in the assay on NIH3T3 [3]; 15.41 in the assay with NIH3T3 [4]; 8.09 with NIH3T3 [5]; 16.64 with NIH3T3 [6]; 33.1 with NIH3T3 [7].

In the assay with NIH3T3 [1], `CC(=O)OC[C@]12[C@H](OC(=O)c3ccccc3)C(=O)[C@@H]3[C@@H](OC(C)=O)[C@]1(OC3(C)C)[C@H](C)C[C@H](OC(C)=O)[C@@H]2O` showed an inhibition constant (Ki) of 18400 nM.

`CC(=O)O[C@H]1C[C@](C)(O)[C@]23OC(C)(C)[C@H]([C@H](OC(=O)c4ccccc4)[C@H](OC(=O)c4ccccc4)[C@]2(CO)[C@H]1OC(C)=O)[C@H]3OC(C)=O`: in the assay with NIH3T3 [1], the Ki was determined as 7040 nM.

As for `CC(=O)OC[C@]12[C@H](OC(C)=O)C(=O)[C@@H]3[C@@H](OC(C)=O)[C@]1(OC3(C)C)[C@H](C)C[C@H](OC(C)=O)[C@@H]2OC(=O)c1ccccc1`, affinity with NIH3T3 [1] was put at a Ki of 5740 nM.

`CC(=O)OC[C@]12[C@H](OC(=O)c3ccccc3)C(=O)[C@@H]3[C@@H](O)[C@]1(OC3(C)C)[C@@](C)(O)C[C@H](OC(C)=O)[C@@H]2OC(=O)c1ccccc1` registered a Ki in the assay on NIH3T3 [1] of 3970 nM. The Ki values of the last two molecules are within 1.5-fold of each other.

In the assay with NIH3T3 [1], `CC(=O)OC[C@]12[C@@H](OC(=O)c3ccccc3)C[C@@H]3[C@@H](OC(C)=O)[C@]1(OC3(C)C)[C@H](C)C[C@H](OC(C)=O)[C@@H]2OC(C)=O` came in with a Ki of 2360 nM. This Ki is about 1.7-fold lower than that of the molecule before.

In the assay with NIH3T3 [1], `CC(=O)OC[C@]12[C@@H](OC(=O)c3ccccc3)[C@@H](OC(=O)c3ccccc3)[C@@H]3[C@@H](OC(C)=O)[C@]1(OC3(C)C)[C@@](C)(O)C[C@H](OC(C)=O)[C@@H]2OC(C)=O` registered a Ki of 1740 nM. Moreover, the Reversal ability is 4.26 with NIH3T3 [2]; 6.23 in the assay with NIH3T3 [3]; 10.78 in the assay on NIH3T3 [4]; 102.17 with NIH3T3 [5]; 11.13 in the assay on NIH3T3 [6]; 233.6 in the assay on NIH3T3 [7].

In the assay with NIH3T3 [1], `CC(=O)OC[C@]12[C@H](OC(C)=O)C(=O)[C@@H]3[C@@H](OC(C)=O)[C@]1(OC3(C)C)[C@H](C)C[C@H](OC(C)=O)[C@@H]2OC(C)=O` gave a Ki of 9830 nM.

`CC(=O)OC[C@]12[C@@H](OC(=O)c3ccccc3)[C@@H](OC(=O)c3ccccc3)[C@@H]3[C@@H](OC(C)=O)[C@]1(OC3(C)C)[C@H](C)C[C@H](OC(C)=O)[C@@H]2OC(C)=O` came in with a Ki with NIH3T3 [1] of 1710 nM.

Consider `CC(=O)OC[C@]12[C@H](OC(=O)c3ccccc3)C(=O)[C@@H]3[C@@H](OC(C)=O)[C@]1(OC3(C)C)[C@H](C)C[C@H](OC(C)=O)[C@@H]2OC(=O)c1ccccc1`, for which the inhibition constant (Ki) with NIH3T3 [1] stood at 1630 nM. For the same molecule, the Reversal ability turned out to be 4.21 with NIH3T3 [2]; 5.72 in the assay on NIH3T3 [3]; 6.21 in the assay on NIH3T3 [4]; 213.64 in the assay with NIH3T3 [5]; 11.75 in the assay on NIH3T3 [6]; 233.37 in the assay with NIH3T3 [7].

On to `COc1ccc(CCN(C)CCCC(C#N)(c2ccc(OC)c(OC)c2)C(C)C)cc1OC` (configuration not stated), for which the Reversal ability in the assay with NIH3T3 [2] was 6.12; in the assay on NIH3T3 [3] it was 6.21; in the assay on NIH3T3 [4] it was 9.55; in the assay on NIH3T3 [5], 13.18; in the assay with NIH3T3 [6], 10.2; in the assay with NIH3T3 [7] it was 18.76.
